Where two headings read alike, the source gives them in different places.
What was measured:
mGluR1a [1] = biological target: T1, mGluR1a (Rattus norvegicus, UniProt P23385); test: Inhibition of PI-hydrolysis in BHK 570 cells expressing mGluR1a receptors (antagonist activity vs 10 μM glutamate); format: cell-based
T1 construct: expressed in transfected cells; host or cells: BHK 570 (baby hamster kidney) cells

[2] = test system: metabotropic glutamate receptor; conditions: cited from earlier work
currents evoked by AMPA = conditions: neurones, nucleus of the Solitary tract; cited from earlier work
[3] = test system: responses evoked by the ionotropic glutamate receptor agonist, AMPA; conditions: Mori-Okamoto et al. 1993; cited from earlier work
GABAA = conditions: neurones, nucleus of the Solitary tract; cited from earlier work
[4] = test system: metabotropic glutamate receptor at the subtypes mGluR1 and mGluR5; conditions: Thomsen and Suzdak 1993; cited from earlier work
mGluR1α = conditions: 1 mM, BHK cells expressing mGluR1α; cited from earlier work
control BHK cells = conditions: 1 mM; cited from earlier work
mGluR1a [5] = biological target: T1, mGluR1a; conditions: competitive antagonist, Thomsen and Suzdak 1993; cited from earlier work
mGluR1a [6] = biological target: T1, mGluR1a; conditions: BHK cells expressing mGluR1a, Thomsen and Suzdak 1993; cited from earlier work
[7] = test system: release of dopamine in the rat brain; conditions: Sacaan et al. 1992; cited from earlier work
nerve cell cultures = conditions: Koh et al. 1991; cited from earlier work
MCAO model in mice = conditions: Chiamulera et al. 1992; cited from earlier work
mGluR1a [8] = biological target: T1, mGluR1a; test: Testing for non competitiveness: mGluR1a-mediated PI-hydrolysis, glutamate dose-response with and without antagonist; format: cell-based; conditions: for effect on maximal response for glutamate / effect on the potency of glutamate / pharmacological profile: BHK cells expressing mGluR1a; for Emax: basal subtracted
mGluR1a [9] = biological target: T1, mGluR1a; test: [3H]Glutamate binding to mGluR1a; conditions: BHK cells expressing mGluR1a
Protocol: Membranes prepared from BHK cells expressing mGluR1a were prepared as described (Thomsen, C. et al. (1993), Brain Res. 619, 22-28). […] IC50 values were calculated by a non-linear regression analysis using the GraphPad-Prism program (I.S.I., Philadelphia). Inhibitory constants (Ki) were calculated from the IC50 values using the equation: […]

NMDA-induced responses = conditions: a number of preparations; cited from earlier work
AMPA = test: Affinity for AMPA receptor (Table 3); format: binding
Bz = test: Affinity for Bz receptor (Table 3); format: binding
KAIN = test: Affinity for KAIN receptor (Table 3); format: binding
CNQX = test: Affinity for CNQX receptor (Table 3); format: binding
TCP = test: Affinity for TCP receptor (Table 3); format: binding
CPP = test: Affinity for CPP receptor (Table 3); format: binding
mGluR1/mGluR5 = conditions: Mori-Okamoto et al. 1993; cited from earlier work
[10] = read-out: response to glutamate relative to the maximal response evoked by 300 μM glutamate, antagonist 10 μM, glutamate 0
[11] = read-out: response to glutamate relative to the maximal response evoked by 300 μM glutamate, antagonist 10 μM, glutamate 3
[12] = read-out: response to glutamate relative to the maximal response evoked by 300 μM glutamate, antagonist 10 μM, glutamate 10
[13] = read-out: response to glutamate relative to the maximal response evoked by 300 μM glutamate, antagonist 10 μM, glutamate 30
[14] = read-out: response to glutamate relative to the maximal response evoked by 300 μM glutamate, antagonist 10 μM, glutamate 100
[15] = read-out: response to glutamate relative to the maximal response evoked by 300 μM glutamate, antagonist 10 μM, glutamate 300

T1 sequence (P23385 19-1199): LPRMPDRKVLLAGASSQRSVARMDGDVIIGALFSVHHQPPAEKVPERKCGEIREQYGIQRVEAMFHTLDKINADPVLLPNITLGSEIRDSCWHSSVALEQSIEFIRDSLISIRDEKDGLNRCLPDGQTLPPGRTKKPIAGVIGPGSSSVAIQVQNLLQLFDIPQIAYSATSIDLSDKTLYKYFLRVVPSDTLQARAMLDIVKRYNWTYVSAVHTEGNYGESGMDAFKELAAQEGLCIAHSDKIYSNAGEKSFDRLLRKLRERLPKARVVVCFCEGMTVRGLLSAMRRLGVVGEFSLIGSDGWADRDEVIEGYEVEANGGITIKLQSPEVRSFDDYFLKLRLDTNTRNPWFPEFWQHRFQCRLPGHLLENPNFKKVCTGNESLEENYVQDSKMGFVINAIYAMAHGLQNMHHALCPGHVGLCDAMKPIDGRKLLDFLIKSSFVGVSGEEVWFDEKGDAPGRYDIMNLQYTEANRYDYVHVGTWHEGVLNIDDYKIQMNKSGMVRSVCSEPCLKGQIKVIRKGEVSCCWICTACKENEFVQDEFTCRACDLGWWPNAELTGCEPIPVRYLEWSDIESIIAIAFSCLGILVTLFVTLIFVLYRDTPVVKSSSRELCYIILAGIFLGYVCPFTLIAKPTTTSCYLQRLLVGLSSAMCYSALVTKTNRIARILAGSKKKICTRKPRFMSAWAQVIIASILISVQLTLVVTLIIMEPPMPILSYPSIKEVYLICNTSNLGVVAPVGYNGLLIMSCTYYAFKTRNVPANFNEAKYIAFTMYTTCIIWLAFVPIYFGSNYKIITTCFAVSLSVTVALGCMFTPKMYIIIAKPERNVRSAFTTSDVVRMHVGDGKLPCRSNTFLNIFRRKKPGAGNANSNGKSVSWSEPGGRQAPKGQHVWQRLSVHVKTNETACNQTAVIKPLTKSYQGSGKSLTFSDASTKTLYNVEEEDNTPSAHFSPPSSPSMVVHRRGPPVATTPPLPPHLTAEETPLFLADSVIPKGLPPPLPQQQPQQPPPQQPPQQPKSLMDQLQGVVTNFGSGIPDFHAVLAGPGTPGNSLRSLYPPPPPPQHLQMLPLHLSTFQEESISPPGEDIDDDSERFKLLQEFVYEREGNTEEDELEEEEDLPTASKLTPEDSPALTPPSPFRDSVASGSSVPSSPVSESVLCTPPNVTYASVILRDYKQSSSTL

Cn1c2ccccc2c2cc(C(=O)N3CCOCC3)sc21 [Compound 27, 8-Methyl-2-morpholinocarbonylthieno[2,3-b]indole]
IC50 (mGluR1a [1]): 5.3 µM

C=C(C)[C@H]1CN[C@H](C(=O)O)[C@H]1CC(=O)O [kainate]
effect on metabotropic glutamate receptors ([2]; selective ionotropic glutamate receptor agonists): little effect

N[C@@]1(C(=O)O)CC[C@@H](C(=O)O)C1 [(1S,3R)-ACPD]
effect on currents evoked by AMPA (currents evoked by AMPA): potentiated | effect on responses evoked by AMPA [3]: suppress responses evoked by the ionotropic glutamate receptor agonist, AMPA | effect on GABAA-mediated currents (GABAA): attenuated

N[C@H](C(=O)O)c1ccc(C(=O)O)cc1 [Compound S-4CPG, S-4-carboxyphenyl glycine]
antagonism of trans ACPD stimulated phosphoinositide hydrolysis [4]: antagonise trans ACPD stimulated phosphoinositide hydrolysis

Cn1c2ccc(Cl)cc2c2cc(C(=O)O)sc21 [Compound 54, 5-Chloro-8-methylthieno[2,3-b]indole-2-carboxylic acid]
IC50 (mGluR1a [1]): 7.2 µM

CN1CCN(C(=O)c2cc3c4ccccc4n(C)c3s2)CC1 [Compound 31, 8-Methyl-2-(4-methyl-1-piperazinylcarbonyl)thieno[2,3-b]indole]
IC50 (mGluR1a [1]): 36 µM

c1ccc(Cn2c3ccccc3c3cc(-c4nnn[nH]4)sc32)cc1 [Compound 25, 8-Benzyl-2-(5-tetrazolyl)thieno[2,3-b]indole]
IC50 (mGluR1a [1]): 9 µM

NC(C(=O)O)c1cc(O)no1 (stereo not shown) [ibotenate]
agonism on the metabotropic glutamate receptor [2]: non-selective agonists

C[C@@](N)(C(=O)O)c1ccc(C(=O)O)cc1 [S-MCPG, S-alpha-methyl-4-carboxyphenyl glycine]
antagonism of trans ACPD stimulated phosphoinositide hydrolysis [4]: antagonise trans ACPD stimulated phosphoinositide hydrolysis

N[C@@H](Cn1oc(=O)[nH]c1=O)C(=O)O [quisqualate]
increase over basal PI-hydrolysis (mGluR1α): 6-8 fold | agonism on the metabotropic glutamate receptor [2]: non-selective agonists | stimulation of PI-hydrolysis (control BHK cells): no stimulation

NC(C(=O)O)c1ccc(C(=O)O)c(O)c1 (stereo not shown) [4-carboxy-3-hydroxyphenylglycine]
displacement of [3H]glutamate binding (mGluR1a [5]): displaced [^3 H]glutamate binding from mGluR1a with an affinity which was similar to the functional antagonist potency | effect on maximal response to glutamate (mGluR1a [6]): not affected | effect on potency of glutamate to stimulate PI-hydrolysis (mGluR1a [6]): decreased

N[C@@H](CCC(=O)O)C(=O)O [glutamate, L-glutamate]
increase over basal PI-hydrolysis (mGluR1α): 6-8 fold

N[C@@]1(C(=O)O)CC[C@@H](C(=O)O)C1 [trans-ACPD, trans 1S,3R-1-aminocyclopentane-1,3-dicarboxylicacid]
effect on release of dopamine [7]: increase release of dopamine | inhibition of NMDA induced neurotoxicity (nerve cell cultures): inhibit NMDA induced neurotoxicity | neuroprotection (MCAO model in mice): neuroprotective

N[C@H](C(=O)O)c1ccc(C(=O)O)c(O)c1 [Compound S-4C3HPG, S-4-carboxy-3-hydroxyphenyl glycine]
antagonism of trans ACPD stimulated phosphoinositide hydrolysis [4]: antagonise trans ACPD stimulated phosphoinositide hydrolysis

O=C(O)c1cc2c3ccccc3n(Cc3ccccc3)c2nc1N1CCOCC1 [Compound 3b, 9-Benzyl-2-morpholinopyridino[2,3-b]indole-3-carboxylic acid]
effect on maximal response for glutamate (mGluR1a [8]): dose-dependently decreased the maximal response for glutamate | effect on the potency of glutamate (mGluR1a [8]): did not affect the potency of glutamate | pharmacological profile (mGluR1a [8]): non-competitive antagonists | Emax (mGluR1a [8]; [10]): 2% | Emax (mGluR1a [8]; [11]): 5% | Emax (mGluR1a [8]; [12]): 16% | Emax (mGluR1a [8]; [13]): 53% | Emax (mGluR1a [8]; [14]): 75% | Emax (mGluR1a [8]; [15]): 77% | displacement of [3H]glutamate binding (mGluR1a [9]): did not displace | IC50 (mGluR1a [1]): 10 µM

N[C@@]1(C(=O)O)CC[C@@H](C(=O)O)C1 (relative stereo) [(±)-trans-ACPD]
effect on NMDA-induced responses (NMDA-induced responses): enhanced

O=C(O)c1cc2c3ccccc3n(Cc3ccccc3)c2s1 [Compound 8, 8-Benzylthieno[2,3-b]indole-2-carboxylic acid]
IC50 (AMPA): > 980 µM | IC50 (Bz): 471 µM | effect on maximal response for glutamate (mGluR1a [8]): dose-dependently decreased the maximal response for glutamate | effect on the potency of glutamate (mGluR1a [8]): did not affect the potency of glutamate | pharmacological profile (mGluR1a [8]): non-competitive antagonists | Emax (mGluR1a [8]; [10]): 2% | Emax (mGluR1a [8]; [11]): 5% | Emax (mGluR1a [8]; [12]): 35% | Emax (mGluR1a [8]; [13]): 65% | Emax (mGluR1a [8]; [14]): 92% | Emax (mGluR1a [8]; [15]): 89% | Emax (mGluR1a [8]; read-out: response to glutamate relative to the maximal response evoked by 300 μM glutamate, antagonist 30 μM, glutamate 0): 2% | Emax (mGluR1a [8]; read-out: response to glutamate relative to the maximal response evoked by 300 μM glutamate, antagonist 30 μM, glutamate 3): 4% | Emax (mGluR1a [8]; read-out: response to glutamate relative to the maximal response evoked by 300 μM glutamate, antagonist 30 μM, glutamate 10): 22% | Emax (mGluR1a [8]; read-out: response to glutamate relative to the maximal response evoked by 300 μM glutamate, antagonist 30 μM, glutamate 30): 58% | Emax (mGluR1a [8]; read-out: response to glutamate relative to the maximal response evoked by 300 μM glutamate, antagonist 30 μM, glutamate 100): 64% | Emax (mGluR1a [8]; read-out: response to glutamate relative to the maximal response evoked by 300 μM glutamate, antagonist 30 μM, glutamate 300): 66% | Emax (mGluR1a [8]; read-out: response to glutamate relative to the maximal response evoked by 300 μM glutamate, antagonist 100 μM, glutamate 0): 5% | Emax (mGluR1a [8]; read-out: response to glutamate relative to the maximal response evoked by 300 μM glutamate, antagonist 100 μM, glutamate 3): 2% | Emax (mGluR1a [8]; read-out: response to glutamate relative to the maximal response evoked by 300 μM glutamate, antagonist 100 μM, glutamate 10): 1% | Emax (mGluR1a [8]; read-out: response to glutamate relative to the maximal response evoked by 300 μM glutamate, antagonist 100 μM, glutamate 30): 24% | Emax (mGluR1a [8]; read-out: response to glutamate relative to the maximal response evoked by 300 μM glutamate, antagonist 100 μM, glutamate 100): 34% | Emax (mGluR1a [8]; read-out: response to glutamate relative to the maximal response evoked by 300 μM glutamate, antagonist 100 μM, glutamate 300): 38% | IC50 (KAIN): 870 µM | IC50 (CNQX): > 980 µM | displacement of [3H]glutamate binding (mGluR1a [9]): did not displace | IC50 (mGluR1a [1]): 21 µM | receptor selectivity for mGluR1a (mGluR1a [1]; based on Table 3, criterion 5-fold more potent at mGluR1a): considered selective for mGluR1a | IC50 (TCP): > 980 µM | IC50 (CPP): 300 µM

CCOC(=O)C(C#N)=Cc1c(Cl)n(Cc2ccccc2)c2ccccc12 [Compound 1a, Ethyl 2-cyano-3-(1-benzyl-2-chloro-3-indolyl)acrylate]
IC50 (mGluR1a [1]): 2.2 µM

N[C@@H](CP(=O)(O)O)C(=O)O [L-AP3, L-2-amino-3-phosphonopropionic acid]
activity at metabotropic receptors [2]: partial agonist | antagonism of mGluR1/mGluR5 (mGluR1/mGluR5): antagonist

— patent publication US5783575A, “Antagonists, their preparation and use” (Novo Nordisk A/S, priority 1994, dated 1998)
